Laboratory results: patent publication US8946439B2, “Amide compounds, compositions and uses thereof” (Evotec AG, priority 2008, dated 2015)
Where two headings read alike, the source gives them in different places.

Columns and labels:
hP2X3 = target: T1, hP2X3 (Homo sapiens, UniProt P56373); test: Calcium uptake assay (P2X antagonist assay), P2X3 homomer; type: cell-based; details: hP2X3
T1 construct: expressed in transfected cells; host or cells: e.g. HEK293 or 1321N1
T1 sequence (P56373 1-397): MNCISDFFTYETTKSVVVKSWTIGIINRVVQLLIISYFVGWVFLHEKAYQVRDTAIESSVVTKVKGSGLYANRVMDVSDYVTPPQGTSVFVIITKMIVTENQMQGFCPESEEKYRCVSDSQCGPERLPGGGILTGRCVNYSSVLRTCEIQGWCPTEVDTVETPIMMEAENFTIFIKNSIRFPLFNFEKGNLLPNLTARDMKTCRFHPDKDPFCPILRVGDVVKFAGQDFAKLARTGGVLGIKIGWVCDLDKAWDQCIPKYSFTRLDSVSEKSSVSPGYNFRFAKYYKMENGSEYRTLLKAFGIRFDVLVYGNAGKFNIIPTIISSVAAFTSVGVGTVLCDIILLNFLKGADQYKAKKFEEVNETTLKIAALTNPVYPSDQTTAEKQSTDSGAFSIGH
How it was run: (§1)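 Stably or transiently transfected HEK293 or 1321N1 cells; the heteromer is made by adding P2X3 to a P2X2-stable line, with heteromer function isolated pharmacologically. The peak-minus-baseline FLIPR calcium signal gives % inhibition and a 4-parameter-logistic IC50.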

hP2X2/3H = target: T2, hP2X2/3H (Homo sapiens, UniProt P56373+Q9UBL9); test: Calcium uptake assay (P2X antagonist assay), P2X2/3 heteromer; type: cell-based; details: hP2X2/3H
T2 construct: expressed in transfected cells; host or cells: e.g. HEK293 or 1321N1
T2 sequence (Q9UBL9 1-471): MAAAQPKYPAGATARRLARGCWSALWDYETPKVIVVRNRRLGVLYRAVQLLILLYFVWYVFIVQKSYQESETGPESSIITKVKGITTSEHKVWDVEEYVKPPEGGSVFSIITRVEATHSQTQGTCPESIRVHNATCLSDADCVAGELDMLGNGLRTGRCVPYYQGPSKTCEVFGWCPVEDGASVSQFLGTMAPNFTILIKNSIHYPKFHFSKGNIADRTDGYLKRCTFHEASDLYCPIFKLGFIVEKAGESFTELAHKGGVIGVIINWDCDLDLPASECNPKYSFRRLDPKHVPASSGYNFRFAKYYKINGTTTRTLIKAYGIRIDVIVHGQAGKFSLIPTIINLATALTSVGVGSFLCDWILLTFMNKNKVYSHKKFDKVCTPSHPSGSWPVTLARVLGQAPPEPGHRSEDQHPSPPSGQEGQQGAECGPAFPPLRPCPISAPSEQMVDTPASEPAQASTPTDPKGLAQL
T2 sequence (P56373 1-397): T1 sequence (P56373 1-397)
How it was run: as §1

[1] = Ca influx (calcium uptake assay), read-out: IC50 hP2X3
[2] = Ca influx (calcium uptake assay), read-out: IC50 hP2X2/3H

Row | IC50 (hP2X3; calcium uptake assay, read-out: IC50 hP2X3 (nM), Ca Influx) [nM] | IC50 (hP2X2/3H; calcium uptake assay, read-out: IC50 hP2X2/3H (nM), Ca Influx) [nM] | IC50 (hP2X3; [1]) [nM] | IC50 (hP2X2/3H; [2]) [nM] | SMILES
1 | < 100 | < 100 | – | – | Cc1ccc(-c2cc(C(=O)N[C@H](C)c3ccc(C)nc3)cc(S(=O)(=O)C(C)C)c2)cc1 [Compound 197]
2 | – | – | < 100 | < 100 | Cc1ccc(-c2cc(C(=O)N[C@H](C)c3cnc(C)nc3)cc(S(=O)(=O)C(C)C)c2)cc1 [Compound 198]
3 | – | – | < 100 | < 100 | Cc1ccc(-c2cc(C(=O)NCc3ccc(C)nc3)cc(S(=O)(=O)C(C)C)c2)cc1 [Compound 199]
4 | – | – | < 100 | < 100 | Cc1ccc(CNC(=O)c2cc(C(=O)N3CCCC3)cc(-c3ccc(Br)cc3)c2)cn1 [Compound 200, 4′-Bromo-N-((6-methylpyridin-3-yl)methyl)-5-(pyrrolidine-1-carbonyl)biphenyl-3-carboxamide]
5 | – | – | < 100 | < 100 | Cc1ccc(-c2cc(C(=O)NCc3cnc(C)nc3)cc(S(=O)(=O)C(C)C)c2)cc1 [Compound 201]
6 | – | – | 100 to 500 | > 1000 | Cc1ccc(-c2cc(C(=O)NCc3ccc(C)nc3)cc(C(F)(F)F)c2)nc1 [Compound 202]
7 | – | – | < 100 | < 100 | [2H]C([2H])([2H])c1ccc(-c2cc(C(=O)NCc3ccc(C)nc3)cc(C(=O)N3CCCC3)c2)cc1 [Compound 203, 4′-Methyl-d3-N-((6-methylpyridin-3-yl)methyl)-5-(pyrrolidine-1-carbonyl)biphenyl-3-carboxamide]
8 | – | – | > 1000 | 501 to 1000 | Cc1ccc(-c2cc(C(=O)NCc3ccc(C)nc3)cc(C(F)(F)F)c2)cc1 [Compound 204]
9 | – | – | < 100 | < 100 | Cc1ccc(-c2cc(C(=O)N[C@H](CCO)c3ccc(C)nc3)cc(S(C)(=O)=O)c2)cc1 [Compound 205]
10 | – | – | < 100 | < 100 | COc1ccc([C@@H](CO)NC(=O)c2cc(-c3ccc(C)cc3)cc(S(C)(=O)=O)c2)cn1 [Compound 206, (S)—N-(2-Hydroxy-1-(6-methoxypyridin-3-yl)ethyl)-4′-methyl-5-(methylsulfonyl)biphenyl-3-carboxamide]
11 | – | – | < 100 | < 100 | Cc1ccc(-c2cc(C(=O)N[C@H](CO)c3ccc(C(F)F)nc3)cc(S(C)(=O)=O)c2)cc1 [Compound 207]
12 | – | – | < 100 | 100 to 500 | Cc1ccc(-c2cc(C(=O)NCc3ccc(C)[n+]([O-])c3)cc(C(O)CN3CCCC3)c2)cc1 (stereo not drawn) [Compound 208]
13 | – | – | < 100 | < 100 | CCS(=O)(=O)c1cc(C(=O)N[C@H](C)c2ccc(C)nc2)cc(-c2ccc(C)cc2)c1 [Compound 209]
14 | – | – | < 100 | < 100 | CCS(=O)(=O)c1cc(C(=O)N[C@H](C)c2cnc(C)nc2)cc(-c2ccc(C)cc2)c1 [Compound 210]
15 | – | – | < 100 | < 100 | CCS(=O)(=O)c1cc(C(=O)NCc2ccc(C)nc2)cc(-c2ccc(C)cc2)c1 [Compound 211]
16 | – | – | < 100 | < 100 | CCS(=O)(=O)c1cc(C(=O)NCc2cnc(C)nc2)cc(-c2ccc(C)cc2)c1 [Compound 212]
17 | – | – | > 1000 | > 1000 | Cc1ccc(-c2cc(C(=O)NC(c3ccc(C)nc3)C(F)(F)F)cc(S(C)(=O)=O)c2)cc1 (stereo not drawn) [Compound 213]
18 | – | – | > 1000 | > 1000 | Cc1ccc(-c2cc(C(=O)NC(c3ccc(C)nc3)C(F)(F)F)cc(C(=O)N3CCCC3)c2)cc1 (stereo not drawn) [Compound 214]
19 | – | – | < 100 | 100 to 500 | Cc1ncc(CNC(=O)c2cc(C(=O)N3CCCC3)cc(-c3ccc(Br)cc3)c2)cn1 [Compound 215]
20 | – | – | < 100 | < 100 | Cc1ncc([C@@H](C)NC(=O)c2cc(C(=O)N3CCCC3)cc(-c3ccc(Br)cc3)c2)cn1 [Compound 216]
21 | – | – | < 100 | < 100 | Cc1ccc([C@@H](C)NC(=O)c2cc(C(=O)N3CCCC3)cc(-c3ccc(Br)cc3)c2)cn1 [Compound 217]

Row | IC50 (hP2X3; calcium uptake assay, read-out: IC50 hP2X3 (nM), Ca Influx) [nM] | IC50 (hP2X2/3H; calcium uptake assay, read-out: IC50 hP2X2/3H (nM), Ca Influx) [nM] | IC50 (hP2X3; [1]) [nM] | IC50 (hP2X2/3H; [2]) [nM] | SMILES
22 | – | – | < 100 | < 100 | Cc1ccc(-c2cc(C(=O)N[C@H](C)c3ccc(C)nc3)cc(S(=O)(=O)C3CCCC3)c2)cc1 [Compound 218]
23 | – | – | < 100 | < 100 | Cc1ccc(-c2cc(C(=O)N[C@H](C)c3cnc(C)nc3)cc(S(=O)(=O)C3CCCC3)c2)cc1 [Compound 219, (R)-5-(Cyclopentylsulfonyl)-4′-methyl-N-(1-(2-methylpyrimidin-5-yl)ethyl)biphenyl-3-carboxamide]
24 | – | – | 100 to 500 | > 1000 | Cc1ccc(-c2cc(OC(F)(F)F)cc(C(=O)NCc3ccc(C)nc3)c2)nc1 [Compound 220, 3-(5-Methylpyridin-2-yl)-N-((6-methylpyridin-3-yl)methyl)-5-(trifluoromethoxy)benzamide]
25 | – | – | < 100 | < 100 | Cc1ccc(-c2cc(C(=O)N[C@H](CO)c3cnc(C)nc3)cc(S(C)(=O)=O)c2)cc1 [Compound 221, (S)—N-(2-Hydroxy-1-(2-methylpyrimidin-5-yl)ethyl)-4′-methyl-5-(methylsulfonyl)biphenyl-3-carboxamide]
26 | – | – | < 100 | < 100 | COc1ccc([C@@H](CCO)NC(=O)c2cc(-c3ccc(C)cc3)cc(S(C)(=O)=O)c2)cn1 [Compound 222]
27 | – | – | < 100 | 100 to 500 | Cc1ccc(-c2cc(C(=O)N[C@H](CCO)c3ccc(C(F)(F)F)nc3)cc(S(C)(=O)=O)c2)cc1 [Compound 223]
28 | – | – | < 100 | < 100 | Cc1ccc(-c2cc(C(=O)NCc3ccc(C)[n+]([O-])c3)cc(C(=O)N3CCCC3)c2)cc1 [Compound 224, 2-Methyl-5-((4′-methyl-5-(pyrrolidine-1-carbonyl)biphenyl-3-ylcarboxamido)methyl)pyridine 1-oxide]
29 | – | – | < 100 | 100 to 500 | COc1cc(C(=O)N[C@H](C)c2cnc(C)nc2)cc(-c2ccc(C)cn2)c1 [Compound 225, (R)-3-Methoxy-5-(5-methylpyridin-2-yl)-N-(1-(2-methylpyrimidin-5-yl)ethyl)benzamide]
30 | – | – | < 100 | 100 to 500 | Cc1ccc(-c2cc(C(=O)N[C@H](CO)c3ccc(C(F)(F)F)nc3)cc(S(C)(=O)=O)c2)cc1 [Compound 226]
31 | – | – | 100 to 500 | < 100 | Cc1ccc(-c2cc(C(=O)N[C@H](C)c3ccc(C)nc3)cc(C(O)c3ccccc3)c2)cc1 (stereo partly drawn) [Compound 227, 5-(Hydroxy(phenyl)methyl)-4′-methyl-N—((R)-1-(6-methylpyridin-3-yl)ethyl)biphenyl-3-carboxamide]
32 | – | – | 100 to 500 | 100 to 500 | Cc1ccc(-c2cc(C(=O)NCc3ccc(C)nc3)cc(C(O)c3ccccc3)c2)cc1 (stereo not drawn) [Compound 228]
33 | – | – | 100 to 500 | < 100 | Cc1ccc(-c2cc(C(=O)N[C@H](C)c3ccc(C)nc3)cc(C(=O)c3ccccc3)c2)cc1 [Compound 229, (R)-5-Benzoyl-4′-methyl-N-(1-(6-methylpyridin-3-yl)ethyl)biphenyl-3-carboxamide]
34 | – | – | < 100 | 100 to 500 | Cc1ccc(-c2cc(C(=O)NCc3ccc(C)nc3)cc(C(O)CN3CCCC3)c2)cc1 (stereo not drawn) [Compound 230]
35 | – | – | > 1000 | > 1000 | Cc1ccc(-c2cc(C(=O)NCc3cnc4[nH]ccc4c3)cc(C(=O)N3CCCC3)c2)cc1 [Compound 231]
36 | – | – | < 100 | < 100 | Cc1ccc(-c2cc(Oc3ncccn3)cc(C(=O)N[C@H](C)c3ccc(C)nc3)c2)cc1 [Compound 232, (R)-4′-Methyl-N-(1-(6-methylpyridin-3-yl)ethyl)-5-(pyrimidin-2-yloxy)biphenyl-3-carboxamide]
37 | – | – | 100 to 500 | 100 to 500 | Cc1ccc(-c2cc(Oc3ncccn3)cc(C(=O)NCc3ccc(C)nc3)c2)cc1 [Compound 233]
38 | – | – | 100 to 500 | 501 to 1000 | Cc1ccc(-c2cc(Oc3ncccn3)cc(C(=O)NCc3cnc(C)nc3)c2)cc1 [Compound 234]
39 | – | – | < 100 | 100 to 500 | Cc1ccc(-c2cc(Oc3ncccn3)cc(C(=O)N[C@H](C)c3cnc(C)nc3)c2)cc1 [Compound 235]
40 | – | – | < 100 | < 100 | Cc1ccc(-c2cc(Oc3nccs3)cc(C(=O)N[C@H](C)c3cnc(C)nc3)c2)cc1 [Compound 236, (R)-4′-Methyl-N-(1-(2-methylpyrimidin-5-yl)ethyl)-5-(thiazol-2-yloxy)biphenyl-3-carboxamide]
41 | – | – | < 100 | 100 to 500 | Cc1ccc(-c2cc(Oc3nccs3)cc(C(=O)NCc3cnc(C)nc3)c2)cc1 [Compound 237]
42 | – | – | 100 to 500 | 100 to 500 | Cc1ccc(-c2cc(Oc3nccs3)cc(C(=O)NCc3ccc(C)nc3)c2)cc1 [Compound 238]
